Values of other authors as cited in patent US20040115263A1, “Use of bupropion for treating restless legs syndrome” (priority 2002, published 2004).

Experiments:
[1] = RLS patients

Row | Compound | efficacy in treating RLS (L-dopa given with a peripheral carboxylase inhibitor at a 10:1 ratio, patients) | cases in which augmentation is a complicating feature (human, in vivo) | side effects reported [1]
1 | N[C@@H](Cc1ccc(O)c(O)c1)C(=O)O [L-dopa] | effective | 65-80% | –
2 | CC(C)C[C@H]1C(=O)N2CCC[C@H]2[C@]2(O)O[C@](NC(=O)[C@@H]3C=C4c5cccc6[nH]c(Br)c(c56)C[C@H]4N(C)C3)(C(C)C)C(=O)N12 [Bromocriptine] | – | – | transient nasal stuffiness and lightheadedness in one patient
